For one data set, the system named is prothrombin time. In words: Anticoagulant activity by measurement of the prothrombin time (3-day ED50, intraperitoneal, modified one-step method of Quick). Type of data set: in vivo, Wistar-strain male rats. The note with it: Rattus norvegicus, S100, ip, 72 h, read-out: 3-day ED50. The protocol: Anticoagulant activity of the compounds of Examples 1 to 11 was determined by measurement of the prothrombin time, which is a measure of blood-clotting properties and is a reliable indicator of efficacy for an anticoagulant rodenticide. The procedure for measurement of prothrombin time is based on Quick et al, Am. J. Med. Sci., 190, 501 to 511, 1935.
Prothrombin times were determined according to the following specific procedures. Test compounds were dissolved in a mixture of polyethylene glycol 200 (i.e. polyethylene glycol of average molar mass 200) and triethanolamine (9:1 w/w) and serially diluted with the same solvent system to give concentrations of; 5.0, 2.5, 1.0, 0.9, 0.8, 0.7, 0.6, 0.5, 0.45, 0.40, 0.35, 0.30, 0.25, 0.2 and 0.1 milligrammes per milliliter (mgml^-1).
As these concentrations represent a known number of milligrammes per milliliter administration of any solution to the test animal at the rate of 1 milliliter per 1 kilogramme of bodyweight (eg. a 250 g rat is administered 0.25 ml) delivers a dose (in mg kg^-1) numerically equivalent to the concentration of that solution. In this instance the terms concentration and dose are synonymous.
Thus, appropriate doses were a range of at least three consecutive doses from the above series of concentrations which it was estimated would induce a range of prothrombin time elevations between 0 to 100% such that a dose-response curve could be constructed for that analogue.
The doses were injected into test animals (200 to 250 g Wistar-strain male rats) by the interperitoneal route. Three days after injection, blood was withdrawn by cardiac puncture whilst the animals were held under "Halothane" anaesthesia.
Three rats were used in each test of a particular compound and three prothrombin time determinations were carried out on each blood sample. Prothrombin times were determined using the modified one-step method of Quick. The percentage extension time of each prothrombin time was determined by assigning 0% extension time to an arbitrary prothrombin resting time of 12 seconds, and 100% extension time to a prothrombin time elevated to an arbitrary 212 seconds. Results were plotted on log-probability graph paper, the best-line fitted, and the prothrombin time ED50 read from the graph.

The next data set has as its system test animal (rat). In words: Acute oral LD50. The following applies: polyethylene glycol 200/triethanolamine 9:1 w/w. In kind it is in vivo. The protocol:
For some compounds, LD50 data has also been generated, as follows.
Compounds were dissolved in a mixture of polyethylene glycol 200 and triethanolamine (9:1 w/w) and serially diluted with the same solvent system to given concentrations of: 10.0, 4.64, 2.15, 1.00, 0.464, 0.215, 0.10, milligrammes per milliliter (mgml^-1).
As these concentrations represent a known number of milligrammes per milliliter, administration of any solution to the test animal at the rate of 1 milliliter per 1 kilogramme of bodyweight delivers a dose (in mgkg^-1) numerically equivalent to the concentration of that solution.
Thus appropriate doses were a range of four consecutive oral doses from the series of concentration sufficient to cause low group mortality at the lowest dose, and high group mortality at the highest dose. Acute oral LD50 's were then determined by reference to the tables in Horns' paper "Simplified LD50 (or ED50) Calculations", Biometrics, 12, 311-322.

The mark [1] stands for this setting: prothrombin time ED50, single intraperitoneal injection, male Wistar rats, blood taken three days after injection, 0% = 12 s, 100% = 212 s.

Where two headings read alike, the source gives them in different places.

From patent publication US4748185A, “4-hydroxycoumarin derivatives” (priority 1985, dated 1988) come the findings set out here.

As a reminder, the ED50 is the dose that gives a 50% effect, or the effect in half of the subjects. By LD50 is commonly meant the dose at which mortality reaches 50%.

With `O=c1oc2ccccc2c(O)c1C1CC(c2ccc(Oc3ccc(-c4ccccc4)cc3)cc2)Cc2ccccc21` (stereo not drawn) [Example 11, 3-{3-[4-(biphenyl-4-yloxy)phenyl]-1,2,3,4-tetrahydro-1-naphthyl}-4-hydroxycoumarin], in the data set with prothrombin time (setting [1]), the ED50 was 0.55 mg/kg.
For the compound `N#Cc1ccc(COc2ccc(-c3ccc(C4Cc5ccccc5C(c5c(O)c6ccccc6oc5=O)C4)cc3)cc2)cc1` (stereo not drawn) [Example 2, 3-{3-[4'-(4-cyanobenzyloxy)biphenyl-4-yl]-1,2,3,4-tetrahydro-1-naphthyl}-4-hydroxycoumarin], the ED50 with prothrombin time (setting [1]) came out at 1.6 mg/kg.
As to `CC(=O)CC(c1ccccc1)c1c(O)c2ccccc2oc1=O` (stereo not drawn) [Warfarin, 3-(α-acetonylbenzyl)-4-hydroxycoumarin, reference compound], in the data set with prothrombin time (setting [1]), the ED50 worked out at 5.2 mg/kg.
Turning to `O=c1oc2ccccc2c(O)c1C1CC(c2ccc(-c3ccccc3)cc2)Cc2ccccc21` (stereo not drawn) [Difenacoum, reference compound], the ED50 in the data set with prothrombin time was determined as 0.56 mg/kg. The LD50 in the data set with test animal (rat) came out at 1.80 mg/kg.
With `O=c1oc2ccccc2c(O)c1C1CC(c2ccc(Cc3ccc(-c4ccccc4)cc3)cc2)Cc2ccccc21` (stereo not drawn) [Example 10, 3-{3-[4-(biphenyl-4-ylmethyl)phenyl]-1,2,3,4-tetrahydro-1-naphthyl}-4-hydroxycoumarin], the ED50 in the data set on prothrombin time (setting [1]) turned out to be 0.52 mg/kg.
Take `O=c1oc2ccccc2c(O)c1C1CC(c2ccc(-c3ccc(OCc4ccc(C(F)(F)F)cc4)cc3)cc2)Cc2ccccc21` (stereo not drawn) [Example 1, 3-{3-[4'-(4-trifluoromethylbenzyloxy)biphenyl-4-yl]-1,2,3,4-tetrahydro-1-naphthyl}-4-hydroxycoumarin]: the ED50 in the data set on prothrombin time (setting [1]) came to 0.4 mg/kg. Moreover, the LD50 in the data set on test animal (rat) lay within 0.32 to 0.4 mg/kg.
Consider `O=c1oc2ccccc2c(O)c1C1CC(c2ccc(Oc3ccc(-c4ccc(Cl)cc4)cc3)cc2)Cc2ccccc21` (stereo not drawn) [Example 7, 3-{3-[4-(4'-chlorobiphenyl-4-yloxy)phenyl]-1,2,3,4-tetrahydro-1-naphthyl}-4-hydroxycoumarin], for which the ED50 in the data set on prothrombin time (setting [1]) came to 0.36 mg/kg.
In the case of `O=c1oc2ccccc2c(O)c1C1CC(c2ccc(-c3ccc(OCc4ccc(Br)cc4)cc3)cc2)Cc2ccccc21` (stereo not drawn) [Example 3, 3-{3-[4'-(4-bromobenzyloxy)biphenyl-4-yl]-1,2,3,4-tetrahydro-1-naphthyl}-4-hydroxycoumarin], the median effective dose (ED50) in the data set on prothrombin time (setting [1]) is 0.74 mg/kg. The same compound returned an LD50 in the data set with test animal (rat) of 0.4 to 1.0 mg/kg.
As for `O=c1oc2ccccc2c(O)c1C1CC(c2ccc(-c3ccc(-c4ccccc4)cc3)cc2)Cc2ccccc21` (stereo not drawn) [Example 4, 3-[3-(4'-terphenyl-4-yl)-1,2,3,4-tetrahydro-1-naphthyl]-4-hydroxycoumarin], the ED50 in the data set with prothrombin time (setting [1]) was 0.55 mg/kg. In the data set on test animal (rat), this compound displayed an LD50 of 1.0 mg/kg.
`O=c1oc2ccccc2c(O)c1C1CC(c2ccc(Cc3ccc(-c4ccc(Br)cc4)cc3)cc2)Cc2ccccc21` (stereo not drawn) [Example 8, 3-{3-[4-(4'-bromobiphenyl-4-ylmethyl)phenyl]-1,2,3,4-tetrahydro-1-naphthyl}-4-hydroxycoumarin]: the ED50 with prothrombin time (setting [1]) worked out at 0.37 mg/kg.
For the compound `O=c1oc2ccccc2c(O)c1C1CC(c2ccc(OCc3ccc(-c4ccccc4)cc3)cc2)Cc2ccccc21` (stereo not drawn) [Example 5, 3-{3-[4-(4-phenylbenzyloxy)phenyl]-1,2,3,4-tetrahydro-1-naphthyl}-4-hydroxycoumarin], the ED50 with prothrombin time (setting [1]) worked out at 0.4 mg/kg. In the data set with test animal (rat), this compound showed an LD50 of 0.4 to 1.0 mg/kg.
For `O=c1oc2ccccc2c(O)c1C1CC(c2ccc(OCc3ccc(-c4ccc(-c5ccccc5)cc4)cc3)cc2)Cc2ccccc21` (stereo not drawn) [Example 9, 3-{3-[4-(4-biphenyl-4-ylbenzyloxy)phenyl]-1,2,3,4-tetrahydro-1-naphthyl}-4-hydroxycoumarin], the ED50 in the data set on prothrombin time (setting [1]) was determined as 0.49 mg/kg.
Still for that read-out and setting: as for `O=c1oc2ccccc2c(O)c1C1CC(c2ccc(OCc3ccc(-c4ccc(Br)cc4)cc3)cc2)Cc2ccccc21` (stereo not drawn) [Example 6, 3-{3-[4-(4'-bromobiphenyl-4-ylmethoxy)phenyl]-1,2,3,4-tetrahydro-1-naphthyl}-4-hydroxycoumarin], the figure is 0.72 mg/kg.
